According to the supplement of paper PMC6045584:
± gives the standard deviation of the averaged measurements.

Key:
PLX-4720 = compound: CCCS(=O)(=O)Nc1ccc(F)c(C(=O)c2c[nH]c3ncc(Cl)cc23)c1F [PLX-4720]; assay: surviving fraction relative to DMSO-only wells; higher = less growth inhibition; conditions: exposure time: 5 days
Summary of the method: (§1)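 Tumour cell lines were grown to log phase and seeded at 250–500 cells per well in 384-well plates. They were exposed continuously to inhibitors at 0.5, 1, 5, 10, 50, 100, 500 and 1000 nM for five days, beginning 24 hours after seeding. Surviving fraction is CellTiter-Glo luminescence normalised to the median of DMSO-only wells.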

ETOPOSIDE = compound: COc1cc([C@@H]2c3cc4c(cc3[C@@H](O[C@@H]3O[C@@H]5CO[C@@H](C)O[C@H]5[C@H](O)[C@H]3O)[C@H]3COC(=O)[C@H]23)OCO4)cc(OC)c1O [ETOPOSIDE]; assay: as above; conditions: exposure time: 5 days
Summary of the method: as §1

Work on MDAMB361 BREAST yielded a surviving fraction (PLX-4720; 0.5 nM) of 0.888 ± 0.076, a surviving fraction (PLX-4720; 1 nM) of 0.865 ± 0.035 and a surviving fraction (PLX-4720; 5 nM) of 0.8033 ± 0.0065. For the same test system, the surviving fraction (PLX-4720; 10 nM) was 0.792 ± 0.035, the surviving fraction (PLX-4720; 50 nM) was 0.991 ± 0.074 and the surviving fraction (PLX-4720; 100 nM) was 0.918 ± 0.097. The surviving fraction (PLX-4720; 500 nM) was 0.96 ± 0.097, the surviving fraction (PLX-4720; 1000 nM) was 0.86 ± 0.078 and the surviving fraction (ETOPOSIDE; 0.5 nM) was 0.921 ± 0.048. It also gave a surviving fraction (ETOPOSIDE; 1 nM) of 0.848 ± 0.056, a surviving fraction (ETOPOSIDE; 5 nM) of 0.884 ± 0.055 and a surviving fraction (ETOPOSIDE; 10 nM) of 0.946 ± 0.068. For the same test system, the surviving fraction (ETOPOSIDE; 50 nM) was 0.958 ± 0.067, the surviving fraction (ETOPOSIDE; 100 nM) was 0.963 ± 0.091 and the surviving fraction (ETOPOSIDE; 500 nM) was 0.954 ± 0.051. It also gave a surviving fraction (ETOPOSIDE; 1000 nM) of 0.972 ± 0.049.

In the case of MDAMB436 BREAST, the surviving fraction (PLX-4720; 0.5 nM) is reported as 0.754 ± 0.019, the surviving fraction (PLX-4720; 1 nM) is reported as 0.831 ± 0.092 and the surviving fraction (PLX-4720; 5 nM) is reported as 0.837 ± 0.052. For the same test system, the surviving fraction (PLX-4720; 10 nM) was 0.821 ± 0.024, the surviving fraction (PLX-4720; 50 nM) was 0.9 ± 0.096 and the surviving fraction (PLX-4720; 100 nM) was 0.943 ± 0.066. The surviving fraction (PLX-4720; 500 nM) was 0.901 ± 0.062, the surviving fraction (PLX-4720; 1000 nM) was 0.909 ± 0.1 and the surviving fraction (ETOPOSIDE; 0.5 nM) was 0.957 ± 0.038. The surviving fraction (ETOPOSIDE; 1 nM) was 1 ± 0.053, the surviving fraction (ETOPOSIDE; 5 nM) was 1.05 ± 0.079 and the surviving fraction (ETOPOSIDE; 10 nM) was 0.943 ± 0.022. The surviving fraction (ETOPOSIDE; 50 nM) was 0.873 ± 0.11, the surviving fraction (ETOPOSIDE; 100 nM) was 0.822 ± 0.045 and the surviving fraction (ETOPOSIDE; 500 nM) was 0.499 ± 0.02. For the same test system, the surviving fraction (ETOPOSIDE; 1000 nM) was 0.416 ± 0.059.

MDAMB453 BREAST was tested, and the surviving fraction (PLX-4720; 0.5 nM) was 0.963 ± 0.054, the surviving fraction (PLX-4720; 1 nM) was 1.01 ± 0.048 and the surviving fraction (PLX-4720; 5 nM) was 1.04 ± 0.071. For the same test system, the surviving fraction (PLX-4720; 10 nM) was 1.01 ± 0.044, the surviving fraction (PLX-4720; 50 nM) was 0.977 ± 0.075 and the surviving fraction (PLX-4720; 100 nM) was 1.03 ± 0.083. It also gave a surviving fraction (PLX-4720; 500 nM) of 1.03 ± 0.044, a surviving fraction (PLX-4720; 1000 nM) of 1.03 ± 0.042 and a surviving fraction (ETOPOSIDE; 0.5 nM) of 1.07 ± 0.098. It also gave a surviving fraction (ETOPOSIDE; 1 nM) of 1.13 ± 0.14, a surviving fraction (ETOPOSIDE; 5 nM) of 1.13 ± 0.057 and a surviving fraction (ETOPOSIDE; 10 nM) of 1.13 ± 0.07. The surviving fraction (ETOPOSIDE; 50 nM) was 1.16 ± 0.046, the surviving fraction (ETOPOSIDE; 100 nM) was 1.15 ± 0.076 and the surviving fraction (ETOPOSIDE; 500 nM) was 1.14 ± 0.12. It also gave a surviving fraction (ETOPOSIDE; 1000 nM) of 0.984 ± 0.078.

MDAMB468 BREAST showed a surviving fraction (PLX-4720; 0.5 nM) of 0.827 ± 0.026, a surviving fraction (PLX-4720; 1 nM) of 0.828 ± 0.0072 and a surviving fraction (PLX-4720; 5 nM) of 0.895 ± 0.028. The surviving fraction (PLX-4720; 10 nM) was 0.928 ± 0.024, the surviving fraction (PLX-4720; 50 nM) was 1.04 ± 0.03 and the surviving fraction (PLX-4720; 100 nM) was 1.08 ± 0.037. It also gave a surviving fraction (PLX-4720; 500 nM) of 0.961 ± 0.045, a surviving fraction (PLX-4720; 1000 nM) of 0.924 ± 0.025 and a surviving fraction (ETOPOSIDE; 0.5 nM) of 1.1 ± 0.11. For the same test system, the surviving fraction (ETOPOSIDE; 1 nM) was 1.06 ± 0.013, the surviving fraction (ETOPOSIDE; 5 nM) was 1.14 ± 0.065 and the surviving fraction (ETOPOSIDE; 10 nM) was 1.13 ± 0.038. The surviving fraction (ETOPOSIDE; 50 nM) was 1.15 ± 0.12, the surviving fraction (ETOPOSIDE; 100 nM) was 1.25 ± 0.089 and the surviving fraction (ETOPOSIDE; 500 nM) was 1.09 ± 0.072. For the same test system, the surviving fraction (ETOPOSIDE; 1000 nM) was 0.937 ± 0.19.

Work on MFM223 BREAST yielded a surviving fraction (PLX-4720; 0.5 nM) of 0.709 ± 0.032, a surviving fraction (PLX-4720; 1 nM) of 0.758 ± 0.066 and a surviving fraction (PLX-4720; 5 nM) of 0.691 ± 0.098. The surviving fraction (PLX-4720; 10 nM) was 0.754 ± 0.057, the surviving fraction (PLX-4720; 50 nM) was 0.97 ± 0.11 and the surviving fraction (PLX-4720; 100 nM) was 1.01 ± 0.062. The surviving fraction (PLX-4720; 500 nM) was 0.981 ± 0.025, the surviving fraction (PLX-4720; 1000 nM) was 1.01 ± 0.11 and the surviving fraction (ETOPOSIDE; 0.5 nM) was 1.1 ± 0.056. For the same test system, the surviving fraction (ETOPOSIDE; 1 nM) was 1.19 ± 0.14, the surviving fraction (ETOPOSIDE; 5 nM) was 1.17 ± 0.12 and the surviving fraction (ETOPOSIDE; 10 nM) was 1.07 ± 0.038. For the same test system, the surviving fraction (ETOPOSIDE; 50 nM) was 1.12 ± 0.035, the surviving fraction (ETOPOSIDE; 100 nM) was 1.06 ± 0.035 and the surviving fraction (ETOPOSIDE; 500 nM) was 0.721 ± 0.032. For the same test system, the surviving fraction (ETOPOSIDE; 1000 nM) was 0.729 ± 0.052.

With MG63 BONE the surviving fraction (PLX-4720; 0.5 nM) was 0.875 ± 0.01, the surviving fraction (PLX-4720; 1 nM) was 0.884 ± 0.025 and the surviving fraction (PLX-4720; 5 nM) was 0.926 ± 0.016. It also gave a surviving fraction (PLX-4720; 10 nM) of 0.937 ± 0.016, a surviving fraction (PLX-4720; 50 nM) of 0.941 ± 0.012 and a surviving fraction (PLX-4720; 100 nM) of 0.958 ± 0.015. For the same test system, the surviving fraction (PLX-4720; 500 nM) was 0.933 ± 0.013, the surviving fraction (PLX-4720; 1000 nM) was 0.963 ± 0.033 and the surviving fraction (ETOPOSIDE; 0.5 nM) was 1.01 ± 0.033. For the same test system, the surviving fraction (ETOPOSIDE; 1 nM) was 0.998 ± 0.038, the surviving fraction (ETOPOSIDE; 5 nM) was 1.05 ± 0.059 and the surviving fraction (ETOPOSIDE; 10 nM) was 1.06 ± 0.036. The surviving fraction (ETOPOSIDE; 50 nM) was 1.06 ± 0.052, the surviving fraction (ETOPOSIDE; 100 nM) was 1.05 ± 0.066 and the surviving fraction (ETOPOSIDE; 500 nM) was 0.778 ± 0.043. It also gave a surviving fraction (ETOPOSIDE; 1000 nM) of 0.265 ± 0.016.

MHM BONE was tested, and the surviving fraction (PLX-4720; 0.5 nM) was 0.9713 ± 0.0025, the surviving fraction (PLX-4720; 1 nM) was 0.96 ± 0.016 and the surviving fraction (PLX-4720; 5 nM) was 1 ± 0.023. It also gave a surviving fraction (PLX-4720; 10 nM) of 1.02 ± 0.021, a surviving fraction (PLX-4720; 50 nM) of 0.97 ± 0.022 and a surviving fraction (PLX-4720; 100 nM) of 1.01 ± 0.031. For the same test system, the surviving fraction (PLX-4720; 500 nM) was 0.949 ± 0.0092, the surviving fraction (PLX-4720; 1000 nM) was 1.01 ± 0.038 and the surviving fraction (ETOPOSIDE; 0.5 nM) was 0.994 ± 0.022. It also gave a surviving fraction (ETOPOSIDE; 1 nM) of 0.999 ± 0.011, a surviving fraction (ETOPOSIDE; 5 nM) of 1.01 ± 0.021 and a surviving fraction (ETOPOSIDE; 10 nM) of 1.001 ± 0.007. It also gave a surviving fraction (ETOPOSIDE; 50 nM) of 1.02 ± 0.016, a surviving fraction (ETOPOSIDE; 100 nM) of 1.02 ± 0.045 and a surviving fraction (ETOPOSIDE; 500 nM) of 0.894 ± 0.018. The surviving fraction (ETOPOSIDE; 1000 nM) was 0.784 ± 0.024.

For NCIH441 LUNG, the surviving fraction (PLX-4720; 0.5 nM) was 0.899 ± 0.056, the surviving fraction (PLX-4720; 1 nM) was 0.906 ± 0.072 and the surviving fraction (PLX-4720; 5 nM) was 0.919 ± 0.1. It also gave a surviving fraction (PLX-4720; 10 nM) of 0.965 ± 0.016, a surviving fraction (PLX-4720; 50 nM) of 0.933 ± 0.045 and a surviving fraction (PLX-4720; 100 nM) of 0.968 ± 0.025. For the same test system, the surviving fraction (PLX-4720; 500 nM) was 0.961 ± 0.044, the surviving fraction (PLX-4720; 1000 nM) was 0.898 ± 0.085 and the surviving fraction (ETOPOSIDE; 0.5 nM) was 1.03 ± 0.15. It also gave a surviving fraction (ETOPOSIDE; 1 nM) of 1.05 ± 0.037, a surviving fraction (ETOPOSIDE; 5 nM) of 1 ± 0.04 and a surviving fraction (ETOPOSIDE; 10 nM) of 0.974 ± 0.011. For the same test system, the surviving fraction (ETOPOSIDE; 50 nM) was 1.01 ± 0.053, the surviving fraction (ETOPOSIDE; 100 nM) was 0.829 ± 0.05 and the surviving fraction (ETOPOSIDE; 500 nM) was 0.565 ± 0.035. The surviving fraction (ETOPOSIDE; 1000 nM) was 0.524 ± 0.016.

NOS1 BONE gave a surviving fraction (PLX-4720; 0.5 nM) of 0.85 ± 0.15, a surviving fraction (PLX-4720; 1 nM) of 1 ± 0.11 and a surviving fraction (PLX-4720; 5 nM) of 0.961 ± 0.069. The surviving fraction (PLX-4720; 10 nM) was 0.994 ± 0.2, the surviving fraction (PLX-4720; 50 nM) was 1.17 ± 0.059 and the surviving fraction (PLX-4720; 100 nM) was 1.25 ± 0.12. For the same test system, the surviving fraction (PLX-4720; 500 nM) was 1.11 ± 0.12, the surviving fraction (PLX-4720; 1000 nM) was 0.911 ± 0.057 and the surviving fraction (ETOPOSIDE; 0.5 nM) was 1.11 ± 0.12. It also gave a surviving fraction (ETOPOSIDE; 1 nM) of 1.01 ± 0.099, a surviving fraction (ETOPOSIDE; 5 nM) of 1.33 ± 0.24 and a surviving fraction (ETOPOSIDE; 10 nM) of 1.19 ± 0.12. The surviving fraction (ETOPOSIDE; 50 nM) was 0.977 ± 0.08, the surviving fraction (ETOPOSIDE; 100 nM) was 0.91 ± 0.24 and the surviving fraction (ETOPOSIDE; 500 nM) was 0.601 ± 0.075. The surviving fraction (ETOPOSIDE; 1000 nM) was 0.623 ± 0.074.
